For assay [1], the target named is Recombinant human MALT-1 (amino acids 340-824) (Homo sapiens (Human), UniProt Q9UDY8). Nature of the assay: MALT-1 inhibition assay (fluorogenic substrate Ac-LRSR-Rh110-DP). Format: biochemical. The note with it: recombinant human MALT-1, substrate Ac-LRSR-Rh110-DP. The gist of the method: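 MALT-1 at 3 nM final was reacted with 10 μM Ac-LRSR-Rh110-DP, with substrate addition starting the reaction. Incubation ran 60 minutes at 25° C in the dark. Percent inhibition from fluorescence across doses was fitted to a 4-parameter logistic to give IC50.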
Sequence of Recombinant human MALT-1 (amino acids 340-824) (Q9UDY8 340-824): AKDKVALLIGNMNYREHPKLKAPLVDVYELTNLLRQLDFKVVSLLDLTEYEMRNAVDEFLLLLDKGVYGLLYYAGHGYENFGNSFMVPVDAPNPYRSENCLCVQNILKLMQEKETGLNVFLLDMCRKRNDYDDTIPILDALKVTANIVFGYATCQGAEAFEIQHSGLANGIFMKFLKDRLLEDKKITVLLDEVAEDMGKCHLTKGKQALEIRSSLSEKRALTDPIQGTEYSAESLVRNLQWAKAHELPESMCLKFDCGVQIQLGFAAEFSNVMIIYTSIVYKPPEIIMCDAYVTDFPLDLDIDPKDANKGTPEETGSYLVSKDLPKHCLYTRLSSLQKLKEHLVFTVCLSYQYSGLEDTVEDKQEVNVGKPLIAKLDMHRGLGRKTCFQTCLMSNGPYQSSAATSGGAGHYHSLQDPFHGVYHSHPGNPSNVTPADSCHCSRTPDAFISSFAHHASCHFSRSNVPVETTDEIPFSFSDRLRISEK

Assay [2] relates to IL-2 secretion by human effector memory T cells (TEM). Nature of the assay: Effector memory T cells IL-2 release assay. The note with it: T-cell; human CD4+ effector memory T cells, CD3/CD28 bead stimulation, 24 h; read-out: CD4TC IL2 IC50. Format: cell-based. In a few lines: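 Human CD4+ effector memory T cells from healthy-donor buffy coats were stimulated with anti-CD3/CD28 Dynabeads and exposed to 10 semi-log compound doses (0.1% DMSO) for 24 h at 37 °C. Supernatant IL-2 was measured by HTRF, and IC50 came from a 4-parameter logistic fit to maximal IL-2. Viability was checked by flow cytometry.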

Structures are written as SMILES.

From US20250051327A1, “MALT-1 MODULATORS” (EXSCIENTIA AI LIMITED, priority 2020, published 2025) come the findings set out here.

As to `CN(C(=O)CN1CCOCC1)[C@@H](c1ccc(N2CCCc3c2cnc2cc(Cl)nn32)cc1)C(F)(F)F` [CPD0073243, N-[(1S)-1-(4-{4-chloro-2,3,7,10-tetraazatricyclo[7.4.0.0^2,6]trideca-1(9),3,5,7-tetraen-10-yl}phenyl)-2,2,2-trifluoroethyl]-N-methyl-2-(morpholin-4-yl)acetamide], the IC50 in assay [1] was found to be 273 nM; in assay [2] it was 315 nM.
In the case of `C[C@@H]1CCN(c2ccc([C@H](N(C)C(=O)[C@H]3CC[S@](=N)(=O)CC3)C(F)(F)F)cc2)c2cnc3cc(Cl)nn3c21` (relative stereo) [CPD0073193, (1rel-r,4rel-r)-N-[(1S)-1-{4-[(13rel-R)-4-chloro-13-methyl-2,3,7,10-tetraazatricyclo[7.4.0.0^2,6]trideca-1(9),3,5,7-tetraen-10-yl]phenyl}-2,2,2-trifluoroethyl]-1-imino-N-methyl-1-oxo-1λ^6-thiane-4-carboxamide], the IC50 in assay [1] is 22 nM; in assay [2] it was 68 nM.
For the compound `COc1ccc2ncc3c(c2n1)C(O)CCN3c1ccc([C@H](N(C)C(=O)C2CCS(=O)(=O)CC2)C(F)(F)F)cc1` (stereo partly drawn) [CPD0072449, N-methyl-1,1-dioxo-N-[(1S)-2,2,2-trifluoro-1-[4-(10-hydroxy-2-methoxy-9,10-dihydro-8H-pyrido[2,3-f][1,7]naphthyridin-7-yl)phenyl]ethyl]thiane-4-carboxamide], the IC50 stood at 432 nM in assay [1] and 940 nM in assay [2].
As to `CN1C[C@H](C(=O)N(C)[C@@H](c2ccc(N3CCCc4c3cnc3cc(Cl)nn43)cc2)C(F)(F)F)CC1=O` (relative stereo) [CPD0073556, (3rel-R)-N-[(1S)-1-(4-{4-chloro-2,3,7,10-tetraazatricyclo[7.4.0.0^2,6]trideca-1(9),3,5,7-tetraen-10-yl}phenyl)-2,2,2-trifluoroethyl]-N,1-dimethyl-5-oxopyrrolidine-3-carboxamide], the concentration for half-maximal inhibition (IC50) was determined as 79 nM in assay [1] and 200 nM in assay [2].
As to `CN(C(=O)CN1CCCS1(=O)=O)[C@@H](c1ccc(N2CCCc3c2cnc2cc(Cl)nn32)cc1)C(F)(F)F` [CPD0073085, N-[(1S)-1-(4-{4-chloro-2,3,7,10-tetraazatricyclo[7.4.0.0^2,6]trideca-1(9),3,5,7-tetraen-10-yl}phenyl)-2,2,2-trifluoroethyl]-2-(1,1-dioxo-1λ^6,2-thiazolidin-2-yl)-N-methylacetamide], the IC50 in assay [1] turned out to be 154 nM; in assay [2] it was 286 nM.
`CC(=O)N1CC[C@@H](C(=O)N(C)[C@@H](c2ccc(N3CCCc4c3cnc3cc(Cl)nn43)cc2)C(F)(F)F)C1` (relative stereo) [CPD0073188, (3rel-R)-1-acetyl-N-[(1S)-1-(4-{4-chloro-2,3,7,10-tetraazatricyclo[7.4.0.0^2,6]trideca-1(9),3,5,7-tetraen-10-yl}phenyl)-2,2,2-trifluoroethyl]-N-methylpyrrolidine-3-carboxamide]: the values for the IC50 in assay [1] and in assay [2] were 113 nM and 235 nM, respectively.
On the same counts, the results for `CN(C(=O)C1COC1)[C@@H](c1ccc(N2CCCc3c2cnc2cc(Cl)nn32)cc1)C(F)(F)F` [CPD0073083, N-[(1S)-1-(4-{4-chloro-2,3,7,10-tetraazatricyclo[7.4.0.0^2,6]trideca-1(9),3,5,7-tetraen-10-yl}phenyl)-2,2,2-trifluoroethyl]-N-methyloxetane-3-carboxamide] are 90 nM and 146 nM.
Consider `COc1ccccc1CC(=O)N(C)[C@@H](c1ccc(N2CCCc3c2cnc2cc(Cl)nn32)cc1)C(F)(F)F` [CPD0021561, N-[(1S)-1-(4-{4-chloro-2,3,7,10-tetraazatricyclo[7.4.0.0^2,6]trideca-1(9),3,5,7-tetraen-10-yl}phenyl)-2,2,2-trifluoroethyl]-2-(2-methoxyphenyl)-N-methylacetamide], for which the figures for the IC50 in assay [1] and in assay [2] were 63 nM and 900 nM, respectively.
Take `CN(C(=O)[C@H]1CC[S@@+]([O-])CC1)[C@@H](c1ccc(N2CCC3(CC3)c3c2cnc2cc(Cl)nn32)cc1)C(F)(F)F` (relative stereo) [CPD0072778, (1rel-s,4rel-s)-N-[(1S)-1-(4-{4′-chloro-2′,3′,7′,10′-tetraazaspiro[cyclopropane-1,13′-tricyclo[7.4.0.0^2,6]tridecane]-1′(9′),3′,5′,7′-tetraen-10′-yl}phenyl)-2,2,2-trifluoroethyl]-N-methyl-1-oxo-1λ^4-thiane-4-carboxamide]: the half-maximal inhibitory concentration (IC50) in assay [1] was 58 nM; in assay [2], 42 nM.
For `CN(C(=O)N1CCS(=O)(=O)CC1)[C@@H](c1ccc(N2CCCc3c2cnc2cc(Cl)nn32)cc1)C(F)(F)F` [CPD0072804, N-[(1S)-1-(4-{4-chloro-2,3,7,10-tetraazatricyclo[7.4.0.0^2,6]trideca-1(9),3,5,7-tetraen-10-yl}phenyl)-2,2,2-trifluoroethyl]-N-methyl-1,1-dioxo-1λ^e-thiomorpholine-4-carboxamide], in that order: 159 nM and 307 nM.
`CN(C(=O)CC1CS(=O)(=O)C1)[C@@H](c1ccc(N2CCCc3c2cnc2cc(Cl)nn32)cc1)C(F)(F)F` [CPD0072798, N-[(1S)-1-(4-{4-chloro-2,3,7,10-tetraazatricyclo[7.4.0.0^2,6]trideca-1(9),3,5,7-tetraen-10-yl}phenyl)-2,2,2-trifluoroethyl]-2-(1,1-dioxo-1λ^6-thietan-3-yl)-N-methylacetamide]: the figures for the IC50 in assay [1] and in assay [2] were 142 nM and 200 nM, respectively.
As to `CN(C(=O)C1CCS(=O)(=O)CC1)[C@@H](c1ccc(N2CCC(C)(C)c3c2cnc2cc(Cl)nn32)nc1)C(F)(F)F` [CPD0021562, N-[(1S)-1-(6-{4-chloro-13,13-dimethyl-2,3,7,10-tetraazatricyclo[7.4.0.0^2,6]trideca-1(9),3,5,7-tetraen-10-yl}pyridin-3-yl)-2,2,2-trifluoroethyl]-N-methyl-1,1-dioxo-1λ^6-thiane-4-carboxamide], the figures for the IC50 in assay [1] and in assay [2] were 80 nM and 103 nM, respectively.
On to `CN(C(=O)C1CCS(=O)(=O)CC1)[C@@H](c1ccc(N2CCCc3c2cnc2cc(F)nn32)cc1)C(F)(F)F` [CPD0021664, N-methyl-1,1-dioxo-N-[(1S)-2,2,2-trifluoro-1-(4-{4-fluoro-2,3,7,10-tetraazatricyclo[7.4.0.0^2,6]trideca-1(9),3,5,7-tetraen-10-yl}phenyl)ethyl]-1λ^6-thiane-4-carboxamide], for which the IC50 in assay [1] turned out to be 83 nM; in assay [2], 195 nM.
In the case of `O=C(N[C@@H](c1ccc(N2CCCc3c2cnc2cc(Cl)nn32)cc1)C(F)(F)F)C1CCS(=O)(=O)CC1` [CPD0021755, N-[(1S)-1-(4-{4-chloro-2,3,7,10-tetraazatricyclo[7.4.0.0^2,6]trideca-1(9),3,5,7-tetraen-10-yl}phenyl)-2,2,2-trifluoroethyl]-1,1-dioxo-1λ^e-thiane-4-carboxamide], the IC50 amounted to 433 nM in assay [1] and 845 nM in assay [2].
Take `CN(C(=O)[C@H]1C[C@H](S(C)(=O)=O)C1)[C@@H](c1ccc(N2CCCc3c2cnc2cc(Cl)nn32)cc1)C(F)(F)F` [CPD0073501, trans-N-[(1S)-1-(4-{4-chloro-2,3,7,10-tetraazatricyclo[7.4.0.0^2,6]trideca-1(9),3,5,7-tetraen-10-yl}phenyl)-2,2,2-trifluoroethyl]-3-methanesulfonyl-N-methylcyclobutane-1-carboxamide]: the IC50 was 66 nM in assay [1] and 140 nM in assay [2].

The IC50 is the point on the concentration scale where inhibition reaches its midpoint.
